Results: patent US8088761B2, “Enzyme inhibitors” (Cancer Research Technology Limited, priority 2005, dated 2012)

Experiments:
Aurora-A = target: T1, Aurora-A (Homo sapiens, UniProt O14965); experiment: Flashplate Aurora A enzyme inhibition assay; type: biochemical; conditions: Flashplate assay; IC50 range; read-out: Aurora-A inhibition
T1 sequence (O14965 1-403): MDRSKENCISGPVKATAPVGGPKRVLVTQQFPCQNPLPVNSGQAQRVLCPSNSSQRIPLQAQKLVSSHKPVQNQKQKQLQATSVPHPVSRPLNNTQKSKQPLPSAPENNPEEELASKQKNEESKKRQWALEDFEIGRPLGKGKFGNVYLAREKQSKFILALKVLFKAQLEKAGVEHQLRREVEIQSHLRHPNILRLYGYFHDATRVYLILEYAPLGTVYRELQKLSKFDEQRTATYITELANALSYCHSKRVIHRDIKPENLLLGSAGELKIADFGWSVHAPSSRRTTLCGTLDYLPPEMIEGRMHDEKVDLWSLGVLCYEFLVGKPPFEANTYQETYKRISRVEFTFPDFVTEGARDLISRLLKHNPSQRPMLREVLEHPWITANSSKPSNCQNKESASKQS
In short: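 This is a radiometric Flashplate format: plates were precoated with DTT, and compound (in 2% DMSO) was mixed with kinase buffer (pH 7.5 Tris, MgCl2, NaCl) containing 1 mM MBP, 20 μM ATP and ^33P-ATP. The reaction was started with 250 ng Aurora-A per well and incubated 2 h at RT. It was then stopped by 10 mM sodium pyrophosphate washing, and plates were scintillation-counted.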

HCT116 cells = experiment: Cell viability assay (MTT) in HCT116 cell line; type: cell-based; conditions: Homo sapiens, HCT-116, 72 hrs, IC50 range, read-out: HCT116 cell growth inhibition
In short: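 MTT read-out (4 hrs, 37 °C, DMSO extraction) following 72 hrs of treatment with 0-50 μM Aurora inhibitor. HCT116 cells were plated a day earlier and tested in triplicate; IC50 derived from the curve.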

| SMILES | IC50 (Aurora-A) | IC50 (HCT116 cells) |
| --- | --- | --- |
| CN(C)c1ccc(-c2nc3c(N4CCN(Cc5cccnc5)CC4)c(Br)cnc3[nH]2)cc1 [Example 27, 4-(6-Bromo-7-(4-(pyridin-3-ylmethyl)piperazin-1-yl)-3H-imidazo[4,5-b]pyridin-2-yl)-N,N-dimethylaniline] | < 500 nM | 500 to 2000 nM |
| CN(C)Cc1ccc(-c2nc3c(N4CCN(Cc5cccnc5)CC4)c(Br)cnc3[nH]2)cc1 [Example 61, 1-(4-(6-Bromo-7-(4-(pyridin-3-ylmethyl)piperazin-1-yl)-3H-imidazo[4,5-b]pyridin-2-yl)phenyl)-N,N-dimethylmethanamine] | < 500 nM | 500 to 2000 nM |
| CN1CCN(Cc2ccc(-c3nc4c(N5CCN(Cc6cccnc6)CC5)c(Br)cnc4[nH]3)cc2)CC1 [Example 96, 6-Bromo-2-(4-((4-methylpiperazin-1-yl)methyl)phenyl)-7-(4-(pyridin-3-ylmethyl)piperazin-1-yl)-3H-imidazo[4,5-b]pyridine] | < 500 nM | 500 to 2000 nM |
| CN(C)c1ccc(-c2nc3c(N4CCN(Cc5ccccn5)CC4)c(Br)cnc3[nH]2)cc1 [Example 30, 4-(6-Bromo-7-(4-(pyridin-2-ylmethyl)piperazin-1-yl)-3H-imidazo[4,5-b]pyridin-2-yl)-N,N-dimethylaniline] | < 500 nM | 2000 to 50000 nM |
| Cc1nc(CN2CCN(c3c(Br)cnc4[nH]c(-c5ccc(CN6CCOCC6)cc5)nc34)CC2)cs1 [Example 156, 4-(4-(6-Bromo-7-(4-((2-methylthiazol-4-yl)methyl)piperazin-1-yl)-3H-imidazo[4,5-b]pyridin-2-yl)benzyl)morpholine] | < 500 nM | < 500 nM |
| Clc1cnc2[nH]c(-c3ccc(CN4CCOCC4)cc3)nc2c1N1CCN(Cc2cccnc2)CC1 [Example 79, 6-Chloro-2-(4-morpholin-4-ylmethyl-phenyl)-7-(4-pyridin-3-ylmethyl-piperazin-1-yl)-3H-imidazo[4,5-b]pyridine] | < 500 nM | < 500 nM |
| CC(c1ccncc1)N1CCN(c2c(Br)cnc3[nH]c(-c4ccc(CN5CCOCC5)cc4)nc23)CC1 (centres unmarked) [Example 129, 4-(4-(6-Bromo-7-(4-(1-(pyridin-4-yl)ethyl)piperazin-1-yl)-3H-imidazo[4,5-b]pyridin-2-yl)benzyl)morpholine] | < 500 nM | < 500 nM |
| Cc1nn(C)c(C)c1-c1nc2c(N3CCN(Cc4cccnc4)CC3)c(Br)cnc2[nH]1 [Example 57, 6-Bromo-7-(4-(pyridin-3-ylmethyl)piperazin-1-yl)-2-(1,3,5-trimethyl-1H-pyrazol-4-yl)-3H-imidazo[4,5-b]pyridine] | < 500 nM | 2000 to 50000 nM |
| COc1ccc(CN2CCN(c3c(Br)cnc4[nH]c(-c5ccc(N6CCOCC6)cc5)nc34)CC2)cn1 [Example 118, 4-(4-(6-Bromo-7-(4-((6-methoxypyridin-3-yl)methyl)piperazin-1-yl)-3H-imidazo[4,5-b]pyridin-2-yl)phenyl)morpholine] | < 500 nM | < 500 nM |
| Brc1cnc2[nH]c(-c3ccc(Cn4cccn4)cc3)nc2c1N1CCN(Cc2cccnc2)CC1 [Example 107, 2-(4-((1H-Pyrazol-1-yl)methyl)phenyl)-6-bromo-7-(4-(pyridin-3-ylmethyl)piperazin-1-yl)-3H-imidazo[4,5-b]pyridine] | < 500 nM | 500 to 2000 nM |
| Clc1cnc2[nH]c(-c3ccc(Cn4cccn4)cc3)nc2c1N1CCN(Cc2ccncc2)CC1 [Example 83, 2-(4-((1H-Pyrazol-1-yl)methyl)phenyl)-6-chloro-7-(4-(pyridin-4-ylmethyl)piperazin-1-yl)-3H-imidazo[4,5-b]pyridine] | < 500 nM | < 500 nM |
| COc1ccc(-c2nc3c(N4CCN(CC(C)C)CC4)c(Cl)cnc3[nH]2)cc1 [Example 36, 6-Chloro-7-(4-isobutylpiperazin-1-yl)-2-(4-methoxyphenyl)-3H-imidazo[4,5-b]pyridine] | < 500 nM | < 500 nM |
| CC(C)(C)OC(=O)NCc1ccc(-c2nc3c(N4CCN(Cc5cccnc5)CC4)c(Br)cnc3[nH]2)cc1 [Example 59, tert-Butyl 4-(6-bromo-7-(4-(pyridin-3-ylmethyl)piperazin-1-yl)-3H-imidazo[4,5-b]pyridin-2-yl)benzylcarbamate] | < 500 nM | 2000 to 50000 nM |
| COc1ccc(-c2nc3c(N4CCN(Cc5cc(C)on5)CC4)c(Br)cnc3[nH]2)cc1 [Example 74, 6-Bromo-2-(4-methoxy-phenyl)-7-[4-(5-methyl-isoxazol-3-ylmethyl)-piperazin-1-yl]-3H-imidazo[4,5-b]pyridine] | < 500 nM | < 500 nM |
| CC(c1ccccc1)N1CCN(c2c(Br)cnc3[nH]c(-c4ccc(CN5CCOCC5)cc4)nc23)CC1 (centres unmarked) [Example 70, 6-Bromo-2-(4-morpholin-4-ylmethyl-phenyl)-7-[4-(1-phenyl-ethyl)-piperazin-1-yl]-3H-imidazo[4,5-b]pyridine] | < 500 nM | 500 to 2000 nM |
| COc1ccc(-c2nc3c(N4CCN(Cc5ccc(Cl)cc5)CC4)c(Cl)cnc3[nH]2)cc1 [Example 37, 6-Chloro-7-(4-(4-chlorobenzyl)piperazin-1-yl)-2-(4-methoxyphenyl)-3H-imidazo[4,5-b]pyridine] | < 500 nM | 2000 to 50000 nM |
| Brc1cnc2[nH]c(-c3ccc(CN4CCOCC4)cc3)nc2c1N1CCN(Cc2cncs2)CC1 [Example 171, 4-(4-(6-Bromo-7-(4-(thiazol-5-ylmethyl)piperazin-1-yl)-3H-imidazo[4,5-b]pyridin-2-yl)benzyl)morpholine] | < 500 nM | 500 to 2000 nM |
| Brc1cnc2[nH]c(-c3ccc(-n4ccnc4)cc3)nc2c1N1CCN(Cc2cccnc2)CC1 [Example 109, 2-(4-(1H-Imidazol-1-yl)phenyl)-6-bromo-7-(4-(pyridin-3-ylmethyl)piperazin-1-yl)-3H-imidazo[4,5-b]pyridine] | < 500 nM | 500 to 2000 nM |
| Cc1nc(CN2CCN(c3c(Br)cnc4[nH]c(-c5ccc(CN6CCNCC6)cc5)nc34)CC2)cs1 [Example 164, 4-((4-(6-Bromo-2-(4-(piperazin-1-ylmethyl)phenyl)-3H-imidazo[4,5-b]pyridin-7-yl)piperazin-1-yl)methyl)-2-methylthiazole] | < 500 nM | < 500 nM |
| CN(C)CCOc1ccc(-c2nc3c(N4CCN(CC(=O)Nc5nccs5)CC4)c(Cl)cnc3[nH]2)cc1 [Example 186, 2-(4-(6-Chloro-2-(4-(2-(dimethylamino)ethoxy)phenyl)-3H-imidazo[4,5-b]pyridin-7-yl)piperazin-1-yl)-N-(thiazol-2-yl)acetamide] | < 500 nM | < 500 nM |
| CC(C)(C)OC(=O)N1CCN(Cc2ccc(-c3nc4c(N5CCN(Cc6cccnc6)CC5)c(Br)cnc4[nH]3)cc2)CC1 [Example 105, tert-Butyl 4-(4-(6-bromo-7-(4-(pyridin-3-ylmethyl)piperazin-1-yl)-3H-imidazo[4,5-b]pyridin-2-yl)benzyl)piperazine-1-carboxylate] | < 500 nM | 500 to 2000 nM |
| NCc1cccc(-c2nc3c(N4CCN(Cc5cccnc5)CC4)c(Br)cnc3[nH]2)c1 [Example 92, (3-(6-Bromo-7-(4-(pyridin-3-ylmethyl)piperazin-1-yl)-3H-imidazo[4,5-b]pyridin-2-yl)phenyl)methanamine] | < 500 nM | 500 to 2000 nM |
| COc1ccc(-c2nc3c(N4CCN(C(C)c5ccncc5)CC4)c(Br)cnc3[nH]2)cc1 (centres unmarked) [Example 54, 6-Bromo-2-(4-methoxyphenyl)-7-(4-(1-(pyridin-4-yl)ethyl)piperazin-1-yl)-3H-imidazo[4,5-b]pyridine] | < 500 nM | < 500 nM |
| COc1ccc(-c2nc3c(N4CCN(CC5CCC5)CC4)c(Br)cnc3[nH]2)cc1 [Example 149, 6-Bromo-7-(4-(cyclobutylmethyl)piperazin-1-yl)-2-(4-methoxyphenyl)-3H-imidazo[4,5-b]pyridine] | < 500 nM | < 500 nM |
| Brc1cnc2[nH]c(-c3cccc(CN4CCOCC4)c3)nc2c1N1CCN(Cc2cccnc2)CC1 [Example 66, 6-Bromo-2-(3-morpholin-4-ylmethyl-phenyl)-7-(4-pyridin-3-ylmethyl-piperazin-1-yl)-3H-imidazo[4,5-b]pyridine] | < 500 nM | < 500 nM |
| CN(C)c1ccc(-c2nc3c(N4CCN(CC(=O)Nc5cccnc5)CC4)c(Br)cnc3[nH]2)cc1 [Example 21, 2-(4-(6-Bromo-2-(4-(dimethylamino)phenyl)-3H-imidazo[4,5-b]pyridin-7-yl)piperazin-1-yl)-N-(pyridin-3-yl)acetamide] | < 500 nM | 500 to 2000 nM |
| COc1ccc(-c2nc3c(N4CCN(Cc5ccncc5)CC4)c(Br)cnc3[nH]2)cc1 [Example 67, 6-Bromo-2-(4-methoxy-phenyl)-7-(4-pyridin-4-ylmethyl-piperazin-1-yl)-3H-imidazo[4,5-b]pyridine] | < 500 nM | < 500 nM |
| NCc1ccc(-c2nc3c(N4CCN(CC(=O)Nc5nccs5)CC4)c(Br)cnc3[nH]2)cc1 [Example 7, 2-{4-[2-(4-Aminomethyl-phenyl)-6-bromo-3H-imidazo[4,5-b]pyridin-7-yl]-piperazin-1-yl}-N-thiazol-2-yl-acetamide] | < 500 nM | 500 to 2000 nM |
